Patent US20230248723A1, “PYRROLO[2,3-B]PYRAZINE COMPOUNDS AS CCCDNA INHIBITORS FOR THE TREATMENT OF HEPATITIS B VIRUS (HBV) INFECTION” (Hoffmann-La Roche Inc., priority 2017, published 2023)

Test system: liver-enriched genes
Test: HLC maturation screening (microfluidic RT-qPCR of liver-enriched genes)
Assay type: cell-based, human
Details: 96 liver-enriched genes
Protocol: FIG. 6: Effect of MB-1 on the expression of 96 liver-enriched genes in HLC. HLC seeded on collagen I-coated 6-well plates were treated with MB-1 (1, 5, or 10 μM) in 1% DMSO, or 1% DMSO (each in triplicate) for 4 days. Cells were harvested and expression of 96 liver-enriched genes was analyzed by microfluidic RT-qPCR (Fluidigm).
HLC are seeded on collagen 1-coated 96-well plates in 100 μl medium D containing Matrigel 0.25 mg/ml. The next day (day 1), compound library was added to cells at a final concentration 4 μM in 1% DMSO. Fresh medium and compound was replenished 2 days later (day 3). At day 4, cells were harvested using Cells-to-Ct lysis kit (Ambion/Thermo Fisher), total RNAs were reverse-transcribed, and the resulting cDNA products were loaded into the microfluidic 96.96 Dynamic Array™ IFC and assayed against 32 liver-enriched genes on Biomark HD system (Fluidigm). The relative gene expression was calculated from delta Ct values using house-keeping gene (PPIA) in DMSO control as reference; delta Ct values were then converted to fold-change values. Compounds that increased liver-enriched gene expression in HLC ≥3-fold compared to DMSO control were further tested in dose-response (1, 5, 10, and 50 μM). The secondary screen was performed as above using 96-liver enriched genes. The top candidate (MB-1) was used for all experiments utilizing HLC. […]

SMILES: O=C(NCc1cccc(F)c1)c1cccc2[nH]c(-c3c(NC[C@@H](O)c4ccccc4)cc[nH]c3=O)nc12 [MB-1]
- concentration at which mRNA expression of liver-enriched genes is enhanced: 55 µM
